Test [1] relates to bFGF expression in A549 (NSCLC) xenografts. In words: bFGF expression in A549 xenografts. It is filed as in vivo. The conditions noted are these: 150 mg/kg, p.o., qdx3.
For a further test, the system named is H460 (NSCLC) xenografts. In words: H460 (NSCLC) xenograft, oral HDAC inhibitor with taxol. It is filed as in vivo, mouse. As for the experimental part:
Antitumor studies were done using human H460 non-small cell lung tumor, Du145 prostate tumor, TSU-Pr1 prostate tumor, and AZ521 gastric tumor xenograft model in male BALBc/A nude mice (from Japan Crea Inc., Japan). Male nude mice were used at age 8-10 weeks. Human carcinoma cells were injected subcutaneously in the animal flank and allowed to form solid tumors. Tumor fragments (about 2 mm^3 fragments) were then removed and implanted subcutaneously through a small surgical incision to the right flank of other animals. […] Tumor volumes and gross body weight of animals were monitored twice weekly for up to 2 weeks for AZ-521 and TSU-Pr1, or 4 weeks for H460 and Du145 xenografts. Each experimental group contained 6 animals.

SMILES strings stand for the structures.

In the case of `Nc1ccccc1NC(=O)c1ccc(CNc2nccc(-c3cccnc3)n2)cc1` [Compound A], the bFGF expression entry in test [1] is reported as “suppression”. In addition, the “tumor response to combination therapy with taxol” value in the test with H460 (NSCLC) xenografts (Compound A 100 mg/kg or SAHA 120 mg/kg with taxol 60 mg/kg) is on record as “tumor regression”. In addition, in the test with H460 (NSCLC) xenografts (Compound A 100 mg/kg p.o. 3 times per week with taxol 60 mg/kg i.v. day 1), the “anti-tumor effect of taxane (tumor volume)” value is reported as “potentiation”.

The record behind these values is patent publication US20090124631A1, “Combination Therapy” (priority 2007, published 2009).
